Drawing on article PMC11356571, “The Comparative Metabolism of a Novel Hepatocellular Carcinoma Therapeutic Agent, 2,3-Diamino-N-(4-(benzo[d]thiazol-2-yl)phenyl)propanamide, in Human and Animal Hepatocytes” (Metabolites, 2024), this text covers Percentage remaining for two compounds.

One data set addresses T1, CES2 (Homo sapiens, UniProt O00748).
T1 construct: purchased Corning Life Sciences (Woburn, MA, USA)
T1 sequence (O00748 27-559): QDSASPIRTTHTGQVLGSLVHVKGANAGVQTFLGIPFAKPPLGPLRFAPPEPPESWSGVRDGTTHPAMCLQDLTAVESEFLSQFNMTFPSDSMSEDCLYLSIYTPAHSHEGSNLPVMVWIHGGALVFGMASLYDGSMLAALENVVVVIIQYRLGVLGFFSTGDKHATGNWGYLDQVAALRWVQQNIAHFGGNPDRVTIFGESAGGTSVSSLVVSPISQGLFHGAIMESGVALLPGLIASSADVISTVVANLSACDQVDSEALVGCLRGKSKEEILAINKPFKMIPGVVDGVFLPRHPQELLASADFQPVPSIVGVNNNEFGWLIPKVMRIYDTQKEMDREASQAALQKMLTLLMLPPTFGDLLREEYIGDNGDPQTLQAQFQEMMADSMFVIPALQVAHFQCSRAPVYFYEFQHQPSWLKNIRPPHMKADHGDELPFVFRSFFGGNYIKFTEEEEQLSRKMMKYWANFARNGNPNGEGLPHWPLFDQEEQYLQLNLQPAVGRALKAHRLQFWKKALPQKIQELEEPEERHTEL
Nature of the data set: Incubation with human recombinant CES2. The note with it: CES2, 60 min at 37 °C; ETN101 10 μM or M1 1 μM. The data set is classed as in vitro ADME. As to the method: To screen for CES enzymes responsible for the hydrolysis of ETN101 or M1, 50 μL of reaction mixtures containing human cDNA-expressed CES enzymes (CES1b, CES1c, and CES2) at the concentration of 1 mg/mL, 10 μM ETN101, or 1 μM M1 in 0.1 M potassium phosphate buffer were incubated at 37 °C for 0 min or 60 min in triplicate. The reactions were quenched by adding 50 μL of ice-cold acetonitrile containing the internal standard (camptothecin, 10 μg/mL). Following centrifugation at 13,000 rpm for 5 min, a 2 μL aliquot of the supernatant was injected into the LC-MS/MS system. The reliability of the analysis was confirmed by incorporating three different levels of quality control samples at the beginning and end of each analytical batch.
For enzyme characterization, an Agilent 6460 triple quadrupole mass spectrometer coupled with a 1260 HPLC system (Agilent Technologies, Santa Clara, CA, USA) and a Kinetex Halo® C18 column (2.7 μm, 2.1 × 50 mm, Advanced Material Technology, Wilmington, DE, USA) were used for chromatographic separation. The mobile phases comprised 0.1% (v/v) formic acid in water (mobile phase A) and 0.1% formic acid (v/v) in acetonitrile (mobile phase B). […] ETN101, M1, and M2 were detected via MRM using ESI in the positive mode. […]

A further data set concerns the target T2, CYP2B6 (Homo sapiens, UniProt P20813).
T2 construct: purchased Cypex Ltd. (Dundee, UK)
T2 sequence (P20813 1-491): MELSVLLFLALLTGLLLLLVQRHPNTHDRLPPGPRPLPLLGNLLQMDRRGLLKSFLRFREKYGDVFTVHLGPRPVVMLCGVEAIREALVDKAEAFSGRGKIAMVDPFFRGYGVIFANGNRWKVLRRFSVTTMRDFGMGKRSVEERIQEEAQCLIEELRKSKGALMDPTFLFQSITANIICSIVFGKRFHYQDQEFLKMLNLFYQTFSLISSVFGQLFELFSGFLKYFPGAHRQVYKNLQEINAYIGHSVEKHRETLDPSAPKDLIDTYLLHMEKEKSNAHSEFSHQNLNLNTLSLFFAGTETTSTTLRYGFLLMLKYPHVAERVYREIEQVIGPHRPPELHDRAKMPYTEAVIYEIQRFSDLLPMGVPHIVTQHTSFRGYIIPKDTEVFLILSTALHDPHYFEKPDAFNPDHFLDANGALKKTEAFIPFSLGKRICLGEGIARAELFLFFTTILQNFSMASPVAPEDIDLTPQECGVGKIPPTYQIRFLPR
In words: Incubation with human cDNA-expressed CYP2B6. In kind it is in vitro ADME. Conditions: CYP2B6, 30 min at 37 °C with NADPH; ETN101 10 μM or M1 1 μM. As to the method: ETN101 or M1 was incubated with nine human cDNA-expressed CYP enzymes (1A2, 2A6, 2B6, 2C8, 2C9, 2C19, 2D6, 2E1, and 3A4) to identify the CYPs involved in the metabolism of ETN101. Based on the preliminary study, the incubation conditions were determined as follows: Briefly, reaction mixtures of 50 μL containing ETN101 (final concentration: 10 μM) or M1 (final concentration: 1 μM), and CYPs (final amount: 5 pmol for CYP1A2, 2A6, 2C8, 2C9, 2C19, 2D6, and 3A4; 10 pmol for CYP2B6 and 2E1) were prepared in 0.1 M potassium phosphate buffer. The reaction was initiated by adding 50 μL of NADPH- regenerating system; the mixtures were incubated for 0 min or 30 min at 37 °C in triplicate. Reactions were terminated by the addition of 100 μL of ice-cold acetonitrile containing the IS (camptothecin, 200 ng/mL). Samples were centrifuged at 13,000 rpm for 5 min at 4 °C. An aliquot of 2 μL supernatant was injected in LC–MS/MS system.
For enzyme characterization, an Agilent 6460 triple quadrupole mass spectrometer coupled with a 1260 HPLC system (Agilent Technologies, Santa Clara, CA, USA) and a Kinetex Halo® C18 column (2.7 μm, 2.1 × 50 mm, Advanced Material Technology, Wilmington, DE, USA) were used for chromatographic separation. […] ETN101, M1, and M2 were detected via MRM using ESI in the positive mode. […]

In the case of `Nc1ccc(-c2nc3ccccc3s2)cc1` [M1, 2-(4-aminophenyl)benzothiazole], the Percentage remaining amounted to 91.7% on CES2 and 109.8% on CYP2B6.

For the compound `NCC(N)C(=O)Nc1ccc(-c2nc3ccccc3s2)cc1` (stereo not shown) [ETN101, 2,3-diamino-N-(4-(benzo[d]thiazol-2-yl)phenyl)propanamide], the Percentage remaining at CES2 stood at 113.4%; on CYP2B6 it was 92.8%.
